Experiments:
[1] = test system: Tick-borne encephalitis virus; assay: Antiviral activity against Tick-borne encephalitis virus Absettarov infected in PEK cells assessed as reduction in viral plaque formation compounds preincubated with virus for 1 hr followed by addition of cells with subsequent incubation of 1 hr measured after 6 days by gentian violet staining; type: functional, cell-based
[2] = test system: Tick-borne encephalitis virus; assay: Antiviral activity against Tick-borne encephalitis virus Absettarov infected in PEK cells assessed as reduction in viral plaque formation incubated for 1 hr measured after 6 days by gentian violet staining; type: functional, cell-based
[3] = Cytotoxicity against PEK cells after 24 hrs; type: cell-based, Sus scrofa; conditions: pig
[4] = Cytotoxicity against PEK cells after 7 days; type: cell-based, Sus scrofa; conditions: pig
[5] = test system: Tick-borne encephalitis virus; assay: Antiviral activity against Tick-borne encephalitis virus Absettarov infected in PEK cells assessed as reduction in viral plaque formation compounds preincubated with cells for 1 hr followed by addition of virus with subsequent incubation of 1 hr by gentian violet staining; type: functional, cell-based
[6] = test system: Sindbis virus; assay: Antiviral activity against Sindbis virus infected in African green monkey Vero cells treated for 10 mins measured after 1 to 2 days by crystal violet staining-based assay; type: functional, organism-based
[7] = test system: Influenza A virus; assay: Antiviral activity against Influenza virus A/PR/8/34 (H1N1) infected in MDCK cells treated for 10 mins measured after 1 hr by neutral red or crystal violet staining-based assay; type: functional, organism-based; conditions: A/Puerto Rico/8/1934(H1N1)
[8] = test system: Human alphaherpesvirus 2; assay: Antiviral activity against HSV2 186 infected in African green monkey Vero cells treated for 10 mins measured after 1 to 2 days by crystal violet staining-based assay; type: functional, cell-based; conditions: Human alphaherpesvirus 2, strain 186, Vero
[9] = test system: Vesicular stomatitis virus; assay: Antiviral activity against VSV infected in African green monkey Vero cells treated for 10 mins measured after 1 to 2 days by crystal violet staining-based assay; type: functional, organism-based
[10] = test system: Hepatitis C virus; assay: Antiviral activity against HCV JFH-1 infected in human Huh7.5 cells treated for 10 mins measured after 72 hrs by immunocytochemical assay; type: functional, organism-based, Hepacivirus hominis; conditions: JFH-1, Huh-7
[11] = test system: Human alphaherpesvirus 1; assay: Antiviral activity against HSV1 KOS infected in African green monkey Vero cells treated for 10 mins measured after 1 to 2 days by crystal violet staining-based assay; type: functional, organism-based; conditions: Human alphaherpesvirus 1, KOS
[12] = test system: Influenza A virus; assay: Antiviral activity against Influenza virus A/PC/1/73 (H3N2) infected in MDCK cells treated for 10 mins measured after 1 hr by neutral red or crystal violet staining-based assay; type: functional, organism-based
[13] = Antiviral activity against Influenza virus A/Aichi/2/68 (H3N2) infected in MDCK cells treated for 10 mins measured after 1 hr by neutral red or crystal violet staining-based assay; type: functional, cell-based, Influenza A virus (A/Aichi/2/1968(H3N2))
[14] = Antiviral activity against Influenza virus A/USSR/90/77 (H1N1) infected in MDCK cells treated for 10 mins measured after 1 hr by neutral red or crystal violet staining-based assay; type: functional, cell-based, Influenza A virus (A/USSR/90/1977(H1N1))
[15] = test system: Tick-borne encephalitis virus; assay: Antiviral activity against 22 PFU Tick-borne encephalitis virus Absettarov infected in PEK cells assessed as inhibition of viral titer at 200 EC50 for simultaneous addition of compound/cells/virus incubated for 1 hr measured after 6 days by gentian violet staining; type: functional
[16] = test system: Tick-borne encephalitis virus; assay: Antiviral activity against 2 PFU Tick-borne encephalitis virus Absettarov infected in PEK cells assessed as inhibition of viral titer at 200 EC50 for simultaneous addition of compound/cells/virus incubated for 1 hr measured after 6 days by gentian violet staining; type: functional
[17] = test system: Tick-borne encephalitis virus; assay: Antiviral activity against 2.2x10^4 PFU Tick-borne encephalitis virus Absettarov infected in PEK cells assessed as inhibition of viral titer at 200 EC50 for simultaneous addition of compound/cells/virus incubated for 1 hr measured after 6 days by gentian violet staining; type: functional
[18] = test system: Tick-borne encephalitis virus; assay: Antiviral activity against 2.2x10^5 PFU Tick-borne encephalitis virus Absettarov infected in PEK cells assessed as inhibition of viral titer at 200 EC50 for simultaneous addition of compound/cells/virus incubated for 1 hr measured after 6 days by gentian violet staining; type: functional
[19] = test system: Tick-borne encephalitis virus; assay: Antiviral activity against 2.2x10^3 PFU Tick-borne encephalitis virus Absettarov infected in PEK cells assessed as inhibition of viral titer at 200 EC50 for simultaneous addition of compound/cells/virus incubated for 1 hr measured after 6 days by gentian violet staining; type: functional
[20] = test system: Tick-borne encephalitis virus; assay: Antiviral activity against 2.2x10^2 PFU Tick-borne encephalitis virus Absettarov infected in PEK cells assessed as inhibition of viral titer at 200 EC50 for simultaneous addition of compound/cells/virus incubated for 1 hr measured after 6 days by gentian violet staining; type: functional
[21] = Cytotoxicity against PEK cells assessed as cytopathic effect at 50 uM after 7 days relative to control; type: cell-based, Sus scrofa; conditions: pig, 168 h

| SMILES | EC50 [1] [nM] | EC50 [2] [nM] | CC50 at 24 h [3] [nM] | CC50 at 168 h [4] [nM] | EC50 [5] [nM] | IC50 [6] [nM] | IC50 [7] [nM] | IC50 [8] [nM] | IC50 [9] [nM] | IC50 [10] [nM] | IC50 [11] [nM] | IC50 [12] [nM] | IC50 [13] [nM] | IC50 [14] [nM] | inhibition (INH) [15] [%] | inhibition (INH) [16] [%] | inhibition (INH) [17] [%] | inhibition (INH) [18] [%] | inhibition (INH) [19] [%] | inhibition (INH) [20] [%] | other results |
| --- | --- | --- | --- | --- | --- | --- | --- | --- | --- | --- | --- | --- | --- | --- | --- | --- | --- | --- | --- | --- | --- |
| O=c1[nH]c(=O)n([C@H]2C[C@H](O)[C@@H](CO)O2)cc1C#Cc1ccc2ccc3cccc4ccc1c2c34 | 600 | 980 | > 50000 | > 50000 | 42000 | – | – | – | – | – | – | – | – | – | – | – | – | – | – | – | – |
| O=c1[nH]c(=O)n([C@@H]2O[C@H](CO)[C@@H](O)[C@@H]2O)cc1C#Cc1ccc2c3cccc4cccc(c5cccc1c52)c43 | 40 | 18 | > 50000 | 4400 | 2700 | 2 | 2 | 2 | 2 | 2 | 2 | 2 | 2 | 2 | – | – | – | – | – | – | – |
| O=c1[nH]c(=O)n([C@H]2C[C@H](O)[C@@H](CO)O2)cc1C#CCOCc1ccc2c3cccc4cccc(c5cccc1c52)c43 | – | 500 | > 50000 | > 50000 | > 50000 | – | – | – | – | – | – | – | – | – | 100 | 100 | 99.9988 | 99.9965 | 100 | 100 | Activity [21]: 25% |
| O=c1[nH]c(=O)n([C@H]2C[C@H](O)[C@@H](CO)O2)cc1C#Cc1ccc2c3cccc4cccc(c5cccc1c52)c43 | 40 | 24 | > 50000 | > 50000 | 1560 | 2 | 2 | 2 | 2 | 2 | 2 | 2 | 2 | 2 | 100 | 100 | 99.9988 | 99.9995 | 100 | 100 | Activity [21]: 25% |
